Assay results published in publication PMC9604439, “Mutation Hotspot for Changing the Substrate Specificity of β-N-Acetylhexosaminidase: A Library of GlcNAcases” (International Journal of Molecular Sciences, 2022).

Assays:
[1] = target: T1, TfHex (β-N-acetylhexosaminidase from Talaromyces flavus) (Talaromyces flavus, UniProt G5DAA0, E332K); experiment: discontinuous p-nitrophenolate release assay, non-linear regression; assay type: biochemical; details: McIlvaine buffer pH 5.0, 25 °C; not measured to full saturation, estimate only
T1 construct: secreted via alpha-factor, pPICZαA, Pichia pastoris KM71H, cation-exchange purified; tetramer of two catalytic subunits and two non-covalently linked propeptides
T1 sequence (G5DAA0 entry or part of it E332K): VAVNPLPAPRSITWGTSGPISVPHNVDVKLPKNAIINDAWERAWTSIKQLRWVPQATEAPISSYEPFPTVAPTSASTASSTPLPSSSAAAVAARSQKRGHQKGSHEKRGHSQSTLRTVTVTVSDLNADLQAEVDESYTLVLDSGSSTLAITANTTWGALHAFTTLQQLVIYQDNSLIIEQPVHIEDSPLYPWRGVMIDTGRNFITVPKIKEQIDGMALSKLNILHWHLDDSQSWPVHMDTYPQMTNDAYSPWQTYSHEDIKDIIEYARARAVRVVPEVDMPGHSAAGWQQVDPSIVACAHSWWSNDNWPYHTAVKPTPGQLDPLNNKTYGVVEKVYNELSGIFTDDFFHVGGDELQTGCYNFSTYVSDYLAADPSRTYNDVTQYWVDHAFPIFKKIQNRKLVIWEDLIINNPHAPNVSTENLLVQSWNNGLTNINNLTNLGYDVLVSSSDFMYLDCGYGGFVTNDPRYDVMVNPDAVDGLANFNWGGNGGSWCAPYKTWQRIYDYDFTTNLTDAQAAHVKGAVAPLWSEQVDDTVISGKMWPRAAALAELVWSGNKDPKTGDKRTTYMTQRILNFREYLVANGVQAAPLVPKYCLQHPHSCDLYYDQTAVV
Text: discontinuous p-nitrophenolate release assay, non-linear regression on TfHex (β-N-acetylhexosaminidase from Talaromyces flavus) | for Glu332Lys TfHex, only estimates of kinetic parameters are presented

[2] = target: T2, TfHex (β-N-acetylhexosaminidase from Talaromyces flavus) (Talaromyces flavus, UniProt G5DAA0, E332H); experiment: as above; assay type: biochemical; details: McIlvaine buffer pH 5.0, 25 °C; not measured to full saturation
T2 construct: secreted via alpha-factor, pPICZαA, Pichia pastoris KM71H, cation-exchange purified; tetramer of two catalytic subunits and two non-covalently linked propeptides
T2 sequence (G5DAA0 entry or part of it E332H): as the sequence (G5DAA0 entry or part of it E332K) above, with K315H counted along it

CC(=O)N[C@H]1[C@H](Oc2ccc([N+](=O)[O-])cc2)O[C@H](CO)[C@@H](O)[C@@H]1O [pNP-GlcNAc, p-Nitrophenyl 2-acetamido-2-deoxy-β-D-glucopyranoside]
Km [1]: > 7 mM
Km [2]: > 7 mM
